Laboratory results taken from ChEMBL document CHEMBL1201862, “PubChem BioAssay data set” (2004).
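Tested at 5 concentrations; 48 h exposure; 96-well plates; endpoints linearly interpolated, else capped at highest concentration. GI50 is the concentration that inhibits growth by half.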 Active and inactive are the calls of the source. Cut-off read from the data, not from the text of the source: active = GI50 up to about 1.1 µM and inactive = higher.

How the values were obtained:
Test in all cases: NCI-60 cell line screen, 48 h
[1] = tested on: 786-0
[2] = tested on: A498
[3] = tested on: A549
[4] = tested on: ACHN
[5] = tested on: CAKI-1
[6] = tested on: CCRF-CEM
[7] = tested on: COLO 205
[8] = tested on: DLD-1
[9] = tested on: DMS-114
[10] = tested on: DMS-273
[11] = tested on: EKVX
[12] = tested on: HCC 2998
[13] = tested on: HCT-116
[14] = tested on: HCT-15
[15] = tested on: HL-60
[16] = tested on: HOP-18
[17] = tested on: HOP-62
[18] = tested on: HOP-92
[19] = tested on: HT-29
[20] = tested on: IGROV-1
[21] = tested on: K562
[22] = tested on: KM-20L2
[23] = tested on: KM12
[24] = tested on: LOX IMVI
[25] = tested on: M14
[26] = tested on: M19-MEL
[27] = tested on: MOLT-4
[28] = tested on: Malme-3M
[29] = tested on: NCI-H226
[30] = tested on: NCI-H23
[31] = tested on: NCI-H460
[32] = tested on: NCI-H522
[33] = tested on: OVCAR-3
[34] = tested on: OVCAR-4
[35] = tested on: OVCAR-5
[36] = tested on: OVCAR-8
[37] = tested on: RPMI-8226
[38] = tested on: RXF 393
[39] = tested on: SF-268
[40] = tested on: SF-295
[41] = tested on: SF-539
[42] = tested on: SK-MEL-28
[43] = tested on: SK-MEL-2
[44] = tested on: SK-MEL-5
[45] = tested on: SK-OV-3
[46] = tested on: SN12C
[47] = tested on: SNB-19
[48] = tested on: SNB-75
[49] = tested on: SNB-78
[50] = tested on: SR
[51] = tested on: SW-620
[52] = tested on: TK-10
[53] = tested on: U-251
[54] = tested on: UACC-257
[55] = tested on: UACC-62
[56] = tested on: UO-31
[57] = tested on: XF498
[58] = tested on: LXFL 529

For `CCOC(=O)C1=C(O)C(=O)c2c(OC)ccc(OC)c2C1=O`, the GI50 [1] was > 100 µM (inactive), the GI50 [2] was > 100 µM (inactive) and the GI50 [3] was > 100 µM (inactive). For the same compound, the GI50 [4] was > 100 µM (inactive), the GI50 [5] was > 100 µM (inactive) and the GI50 [6] was > 100 µM (inactive). The GI50 [7] was > 100 µM (inactive), the GI50 [8] was > 100 µM (inactive) and the GI50 [9] was > 100 µM (inactive). The GI50 [10] was > 100 µM (inactive), the GI50 [11] was > 100 µM (inactive) and the GI50 [12] was > 100 µM (inactive). For the same compound, the GI50 [13] was > 100 µM (inactive), the GI50 [14] was > 100 µM and the GI50 [15] was > 100 µM (inactive). For the same compound, the GI50 [16] was 32.5 µM (inactive), the GI50 [17] was > 100 µM (inactive) and the GI50 [18] was > 100 µM (inactive). The GI50 [19] was > 100 µM (inactive), the GI50 [20] was > 100 µM (inactive) and the GI50 [21] was > 100 µM (inactive). The GI50 [22] was > 100 µM (inactive), the GI50 [23] was > 100 µM (inactive) and the GI50 [24] was > 100 µM (inactive). For the same compound, the GI50 [25] was > 100 µM (inactive), the GI50 [26] was > 100 µM (inactive) and the GI50 [27] was > 100 µM (inactive). For the same compound, the GI50 [28] was > 100 µM (inactive), the GI50 [29] was > 100 µM (inactive) and the GI50 [30] was > 100 µM (inactive). The GI50 [31] was > 100 µM (inactive), the GI50 [32] was > 100 µM (inactive) and the GI50 [33] was > 100 µM (inactive). The GI50 [34] was > 100 µM (inactive), the GI50 [35] was > 100 µM (inactive) and the GI50 [36] was > 100 µM (inactive). For the same compound, the GI50 [37] was > 100 µM (inactive), the GI50 [38] was > 100 µM (inactive) and the GI50 [39] was > 100 µM (inactive). For the same compound, the GI50 [40] was > 100 µM (inactive), the GI50 [41] was > 100 µM (inactive) and the GI50 [42] was > 100 µM (inactive). For the same compound, the GI50 [43] was > 100 µM (inactive), the GI50 [44] was > 100 µM (inactive) and the GI50 [45] was > 100 µM (inactive). The GI50 [46] was > 100 µM (inactive), the GI50 [47] was > 100 µM (inactive) and the GI50 [48] was 82.6 µM (inactive). For the same compound, the GI50 [49] was > 100 µM (inactive), the GI50 [50] was > 100 µM (inactive) and the GI50 [51] was > 100 µM (inactive). The GI50 [52] was > 100 µM (inactive), the GI50 [53] was > 100 µM (inactive) and the GI50 [54] was > 100 µM (inactive). The GI50 [55] was > 100 µM (inactive), the GI50 [56] was > 100 µM (inactive) and the GI50 [57] was > 100 µM (inactive).
For `CCOc1ccccc1NC(=O)CCC(=O)OC`, the GI50 [1] was > 100 µM (inactive), the GI50 [2] was > 100 µM (inactive) and the GI50 [3] was > 100 µM (inactive). The GI50 [4] was > 100 µM (inactive), the GI50 [5] was > 100 µM (inactive) and the GI50 [6] was > 45.6 µM (inactive). The GI50 [7] was > 58.2 µM (inactive), the GI50 [8] was > 83 µM (inactive) and the GI50 [9] was > 61.1 µM (inactive). For the same compound, the GI50 [10] was > 100 µM (inactive), the GI50 [11] was > 100 µM (inactive) and the GI50 [12] was > 100 µM (inactive). For the same compound, the GI50 [13] was > 100 µM (inactive), the GI50 [14] was > 74.5 µM and the GI50 [15] was > 51.8 µM (inactive). The GI50 [16] was > 100 µM (inactive), the GI50 [17] was > 100 µM (inactive) and the GI50 [18] was > 100 µM (inactive). For the same compound, the GI50 [19] was > 100 µM (inactive), the GI50 [20] was > 100 µM (inactive) and the GI50 [21] was > 56.2 µM (inactive). The GI50 [22] was > 100 µM (inactive), the GI50 [23] was > 100 µM (inactive) and the GI50 [24] was > 31.6 µM (inactive). For the same compound, the GI50 [58] was > 100 µM (inactive), the GI50 [25] was > 100 µM (inactive) and the GI50 [26] was > 100 µM (inactive). For the same compound, the GI50 [27] was > 100 µM (inactive), the GI50 [28] was > 100 µM (inactive) and the GI50 [29] was > 100 µM (inactive). For the same compound, the GI50 [30] was > 100 µM (inactive), the GI50 [31] was > 100 µM (inactive) and the GI50 [32] was > 100 µM (inactive). For the same compound, the GI50 [33] was > 100 µM (inactive), the GI50 [34] was > 100 µM (inactive) and the GI50 [35] was > 100 µM (inactive). For the same compound, the GI50 [36] was > 100 µM (inactive), the GI50 [37] was > 48.3 µM (inactive) and the GI50 [38] was > 100 µM (inactive). The GI50 [39] was > 100 µM (inactive), the GI50 [40] was > 100 µM (inactive) and the GI50 [42] was > 100 µM (inactive). The GI50 [43] was > 100 µM (inactive), the GI50 [44] was > 100 µM (inactive) and the GI50 [45] was > 100 µM (inactive). The GI50 [46] was > 100 µM (inactive), the GI50 [47] was > 100 µM (inactive) and the GI50 [48] was > 100 µM (inactive). The GI50 [49] was > 100 µM (inactive), the GI50 [50] was > 47 µM (inactive) and the GI50 [51] was > 42.1 µM (inactive). The GI50 [52] was > 100 µM (inactive), the GI50 [53] was > 49.9 µM (inactive) and the GI50 [54] was > 100 µM (inactive). The GI50 [55] was > 100 µM (inactive), the GI50 [56] was > 100 µM (inactive) and the GI50 [57] was > 100 µM (inactive).
